For one experiment, the system named is human stromal cells. As to the kind of experiment: proliferation of human stromal cells stimulated with PDGF. It counts as cell-based. Conditions: 50 ng/ml PDGF-BB. How it is done: Another assay for measuring activity of the inventive compounds involves determining PDGF (platelet derived growth factor) proliferative response using human-derived stromal cells. Human stromal cells are plated (e.g., about 2000 cells per well) in defined media (e.g., 69% McCoy's, 12.5% fetal calf serum, 12.5% horse serum, 1% antibiotics, 1% glutamine, 1% vitamin supplement, 0.8% essential amino acids, 1% sodium pyruvate, 1% sodium bicarbonate, 0.4% non-essential amino acids and 0.36% hydrocortisone). Two to three days later, the stromal cells are starved in serum-free media. Twenty four hours later, the cells are treated with a stimulating agent, such as PDGF-AA, PDGF-BB or basic FGF (fibroblast growth factor) with or without IL-1α or TNF, and tritiated thymidine. Cell proliferation is determined by liquid scintillation counting.
This example illustrates the ability of inventive compounds nos. […] This assay is a model for restenosis and treatment of atherosclerosis and coronary artery disease. Stromal cells were starved in serum-free media for one day and then stimulated with 50 ng/ml PDGF-BB. The drugs were added at the indicated concentrations one hour prior to PDGF stimulation. Tritiated thymidine was added for one day at the time of PDGF stimulation and the cells were harvested and counted by liquid scintillation counting 24 hours later. […]

A further experiment relates to VCAM in HUVEC cells. As to the kind of experiment: cell surface expression of VCAM in HUVEC. The experiment is classed as cell-based, human. Particulars: human TNF-α 20 ng/ml, 20 hours; FIG. 11. Here is the method: Drug inhibitory activity can also be measured by determining levels of vascular cell adhesion molecule (VCAM) in stimulated cells. Early passage human umbilical vein endothelial cells (HUVEC) (obtained from commercial suppliers such as Cell Systems, Inc. or Clonetics) are cultured in media (e.g., Hepes buffered media, Cell Systems) containing 10% fetal bovine serum, and supplemented with a stimulating agent, such as fibroblast growth factor (acidic FGF, Cell Systems, Inc.) or TNF. The cells are plated into wells of a microtiter plate (e.g., 5×10^4 per well) and allowed to incubate at 37° C. for 72 hrs. The resting cells are removed (e.g., 20-30 min treatment with 0.4% EDTA), washed in media (e.g., phosphate buffered saline plus 0.1% bovine serum albumin with 0.01% sodium azide) and labeled on ice with a monoclonal antibody ("first antibody") recognizing human VCAM (e.g., 1 μg of a murine monoclonal antibody recognizing human VCAM, Genzyme). After 60 min on ice, the cells are washed (preferably twice) with cold wash media and incubated with an antibody that recognizes the first antibody (e.g., 1 μg of goat anti-mouse IgG conjugated with phycoerythrin, CalTag, Inc.). After 30 min on ice, the cells are washed twice and analyzed on a flow cytometer (Coulter Elite®) at appropriate emission and excitation wavelengths (e.g., for phycoerytlrin use excitation at 488 nm and emission at 525 nm).
The cells were stimulated with human TNF-α (20 ng/ml) for 20 hours and then stained for immunofluorescence using a monoclonal antibody recognizing VCAM, followed by a goat anti-mouse antibody conjugated to phycoerythrin. The cells were analyzed for antibody binding using flow cytometry. […] 1521 and 1522 at the indicated drug concentrations.
This example was used to investigate inhibition of vascular cell adhesion molecule (VCAM) expression on HUVEC by inventive compound no. 2525. VCAM expression by endothelial cells is an early event in atherogenesis and multiple sclerosis, among other various autoimmune diseases. FIG. 17, a plot of percent surface expression versus concentration of compound no.

The subject of another experiment is murine thymocyte. As to the kind of experiment: thymocyte proliferation stimulated by ConA and IL-1α. Particulars: ConA 0.25 μg/ml, IL-1α 12.5 ng/ml; drug 2 h prior. The experiment is classed as cell-based, murine (female Balb/C mice). Here is the method: A thymocyte costimulator assay is conducted to evaluate the inventive compounds to inhibit activation and proliferation of thymocytes caused by stimulation with Con A and interleukin-1 (IL-1), or […]. Thymuses are obtained from mice (e.g., female Balb/C mice) and the thymuses are removed and dissociated into culture media (e.g., RPMI 1640 without serum supplementation). The dissociated thymus tissue and cell suspension is transferred to centrifuge tubes and allowed to settle, washed with HBSS and resuspended in serum-supplemented culture media (e.g., RPMI 1640 with 10% fetal calf serum). Any contaminating red cells are lysed, and viable cells are resuspended and counted. Thymocytes are plated (e.g., 96-well plates at a density of 2×10^5 cells/well) and a stimulating agent, such as Con A, IL-1 (e.g., IL-1α) or IL-2 is added to the well. The cells are incubated for 4 days at 37° C. On the fourth day, the cells are pulsed with tritiated thymidine and cell proliferation determined. […]
1521 on inhibition of murine thymocyte proliferation stimulated by Concanavalin A (ConA) and interleukin-I alpha (IL-1α). Thymuses were obtained from normal, female Balb/C mice. The thymuses were dissociated and plated into 96-well plates at a density of 2×10^5 cells/well. […] The cells were harvested and incorporated tritiated thymidine was determined in a liquid scintillation counter. […]

For the compound `CON=C(C)CCCCn1c(=O)c2c(ncn2C)n(C)c1=O` [Compound no. 1522], the “inhibition of proliferation of stromal cells stimulated with PDGF” value with human stromal cells is “strongly inhibit proliferation of human stromal cells”. In addition, the “inhibition of cell surface expression of VCAM” value with VCAM in HUVEC cells is given as “inhibit cell surface expression of VCAM in HUVEC cells”. Further, the “inhibition of thymocyte proliferation, ConA + IL-1α” value in the experiment on murine thymocyte is “inhibited thymocyte proliferation”.
The like results for `CC(CCCCn1c(=O)c2c(ncn2C)n(C)c1=O)=NO` [Compound no. 1521] were, in that order, “strongly inhibit proliferation of human stromal cells”, “inhibit cell surface expression of VCAM in HUVEC cells” and “inhibited thymocyte proliferation in a dose-response manner”.

The record behind these values is patent US5770595A, “Oxime substituted therapeutic compounds” (Cell Therapeutics, Inc., priority 1994, dated 1998).
